Assay results reported in ChEMBL document CHEMBL5537206 (J Med Chem, 2024).
The source made the active and inactive calls. No cut-off for these calls is given here.

Columns and labels:
[1] = test system: Osimertinib-resistant NCI-H1975 cell; assay: Antiproliferative activity against human Osimertinib-resistant NCI-H1975 cell (AZDR) incubated for 72 hrs by MTT assay; format: functional, cell-based
[2] = test system: Osimertinib-resistant NCI-H1975 cell; assay: Anticancer activity against human Osimertinib-resistant NCI-H1975 cell (AZDR) xenografted in BALB/c nude mouse model assessed as increase in tumor cell apoptosis administered as ip dose by TUNEL assay; format: functional, organism-based; settings: dose 20-60 mg/kg
[3] = test system: Osimertinib-resistant NCI-H1975 cell; assay: Induction of apoptosis in human Osimertinib-resistant NCI-H1975 cell (AZDR) assessed as late apoptotic cells at 0.1 uM incubated for 24 hrs by Annexin V and propidium iodide staining based flow cytometry analysis (reference value: 1.06%); format: functional
[4] = test system: Osimertinib-resistant NCI-H1975 cell; assay: Induction of apoptosis in human Osimertinib-resistant NCI-H1975 cell (AZDR) assessed as early apoptotic cells at 10 uM incubated for 24 hrs by Annexin V and propidium iodide staining based flow cytometry analysis (reference value: 3.38%); format: functional
[5] = test system: NCI-H1975; assay: Antiproliferative activity against human NCI-H1975 cells incubated for 72 hrs by MTT assay; format: functional, cell-based; settings: NCI-H1975, 72 h
[6] = biological target: T1, Serine/threonine-protein kinase AKT (Homo sapiens) (UniProt P31751+Q9Y243+P31749); assay: Inhibition of AKT phosphorylation in human NCI-H1975 cells incubated for 24 hrs by Western blot analysis; format: cell-based; settings: dose 0.1-10 µM
[7] = test system: Mus musculus; assay: In vivo inhibition of EGFR L858R/T790M mutant in BALB/c nude mouse xenografted with human Osimertinib-resistant NCI-H1975 cell (AZDR) assessed as downregulation of AKT phosphorylation at 60 mg/kg, ip measured after 22 days; format: functional, organism-based; settings: time 22.0 day
[8] = test system: Osimertinib-resistant NCI-H1975 cell; assay: Induction of apoptosis in human Osimertinib-resistant NCI-H1975 cell (AZDR) assessed as increase in number of apoptotic cells measured after 24 hrs by Hoechst 33258 staining based analysis; format: functional; settings: dose 0.1-10 µM
[9] = Toxicity in BALB/c nude mouse assessed as effect on kidney at 20 to 60 mg/kg, ip measured after 22 days by H and E staining based analysis; format: organism-based; settings: in vivo, 528 h, dose 20-60 mg/kg, time 22 day
[10] = test system: Osimertinib-resistant NCI-H1975 cell; assay: Anticancer activity against human Osimertinib-resistant NCI-H1975 cell (AZDR) xenografted in BALB/c nude mouse model assessed as inhibition of tumor growth administered as ip dose and measured upto 22 days; format: functional, organism-based; settings: dose 20-60 mg/kg, time <= 22.0 day
[11] = test system: Osimertinib-resistant NCI-H1975 cell; assay: Induction of apoptosis in human Osimertinib-resistant NCI-H1975 cell (AZDR) assessed as caspase3/7 activation using caspase-glo 3/7 as substrate at 0.1 to 10 uM by luminescence based analysis; format: functional; settings: dose 0.1-10 µM, time 24-72 hrs, TDE = time-dependent effect
[12] = Toxicity in BALB/c nude mouse assessed as effect on spleen at 20 to 60 mg/kg, ip measured after 22 days by H and E staining based analysis; format: organism-based; settings: in vivo, 528 h, dose 20-60 mg/kg, time 22 day
[13] = test system: Osimertinib-resistant NCI-H1975 cell; assay: Induction of apoptosis in human Osimertinib-resistant NCI-H1975 cell (AZDR) assessed as late apoptotic cells at 10 uM incubated for 24 hrs by Annexin V and propidium iodide staining based flow cytometry analysis (reference value: 1.06%); format: functional
[14] = test system: Osimertinib-resistant NCI-H1975 cell; assay: Induction of apoptosis in human Osimertinib-resistant NCI-H1975 cell (AZDR) assessed as early apoptotic cells at 0.1 uM incubated for 24 hrs by Annexin V and propidium iodide staining based flow cytometry analysis (reference value: 3.38%); format: functional
[15] = Toxicity in BALB/c nude mouse assessed as effect on heart at 20 to 60 mg/kg, ip measured after 22 days by H and E staining based analysis; format: organism-based; settings: in vivo, 528 h, dose 20-60 mg/kg, time 22 day
[16] = test system: Osimertinib-resistant NCI-H1975 cell; assay: Anticancer activity against human Osimertinib-resistant NCI-H1975 cell (AZDR) xenografted in BALB/c nude mouse model assessed as reduction in tumor weight administered as ip dose and measured upto 22 days; format: functional, organism-based; settings: dose 20-60 mg/kg, time <= 22.0 day
[17] = biological target: T1, Serine/threonine-protein kinase AKT (Homo sapiens); assay: Inhibition of AKT phosphorylation in human Osimertinib-resistant NCI-H1975 cell (AZDR) at 0.1 to 10 uM incubated for 24 hrs by Western blot analysis; format: cell-based; settings: dose 0.1-10 µM
[18] = Stability of the compound assessed as half life in presence of glutathione at pH 7.4; format: physicochemical; settings: solution containing glutathione
[19] = Toxicity in BALB/c nude mouse assessed as effect on body weight at 20 to 60 mg/kg, ip measured upto 22 days; format: organism-based; settings: in vivo, 528 h, dose 20-60 mg/kg, time < 22 day
[20] = test system: Osimertinib-resistant NCI-H1975 cell; assay: Inhibition of cell migration in human Osimertinib-resistant NCI-H1975 cell (AZDR) measured after 24 hrs by wound healing assay; format: functional, cell-based; settings: dose 0.1-10 µM
[21] = test system: Osimertinib-resistant NCI-H1975 cell; assay: Induction of apoptosis in human Osimertinib-resistant NCI-H1975 cell (AZDR) assessed as late apoptotic cells at 1 uM incubated for 24 hrs by Annexin V and propidium iodide staining based flow cytometry analysis (reference value: 1.06%); format: functional
[22] = test system: Osimertinib-resistant NCI-H1975 cell; assay: Induction of apoptosis in human Osimertinib-resistant NCI-H1975 cell (AZDR) assessed as caspase3/7 activation using caspase-glo 3/7 as substrate incubated for 24 hrs by luminescence based analysis; format: functional; settings: dose 0.1-10 µM
[23] = Toxicity in BALB/c nude mouse assessed as effect on liver at 20 to 60 mg/kg, ip measured after 22 days by H and E staining based analysis; format: organism-based; settings: in vivo, 528 h, dose 20-60 mg/kg, time 22 day
[24] = Toxicity in BALB/c nude mouse assessed as effect on lung at 20 to 60 mg/kg, ip measured after 22 days by H and E staining based analysis; format: organism-based; settings: in vivo, 528 h, dose 20-60 mg/kg, time 22 day
[25] = test system: Osimertinib-resistant NCI-H1975 cell; assay: Induction of apoptosis in human Osimertinib-resistant NCI-H1975 cell (AZDR) assessed as early apoptotic cells at 1 uM incubated for 24 hrs by Annexin V and propidium iodide staining based flow cytometry analysis (reference value: 3.38%); format: functional
[26] = test system: MCF7; assay: Antiproliferative activity against human MCF7 cells incubated for 72 hrs by MTT assay; format: functional, cell-based; settings: MCF7, 72 h
[27] = test system: Osimertinib-resistant NCI-H1975 cell; assay: Inhibition of colony formation in human Osimertinib-resistant NCI-H1975 cell (AZDR) measured after 14 days by crystal violet staining based analysis; format: functional; settings: dose 0.1-10 µM, time 14.0 day
[28] = biological target: T2, Tyrosine-protein kinase ITK/TSK (Homo sapiens) (UniProt Q08881); assay: Inhibition of human ITK at 1 uM relative to control
T2 sequence (whole entry): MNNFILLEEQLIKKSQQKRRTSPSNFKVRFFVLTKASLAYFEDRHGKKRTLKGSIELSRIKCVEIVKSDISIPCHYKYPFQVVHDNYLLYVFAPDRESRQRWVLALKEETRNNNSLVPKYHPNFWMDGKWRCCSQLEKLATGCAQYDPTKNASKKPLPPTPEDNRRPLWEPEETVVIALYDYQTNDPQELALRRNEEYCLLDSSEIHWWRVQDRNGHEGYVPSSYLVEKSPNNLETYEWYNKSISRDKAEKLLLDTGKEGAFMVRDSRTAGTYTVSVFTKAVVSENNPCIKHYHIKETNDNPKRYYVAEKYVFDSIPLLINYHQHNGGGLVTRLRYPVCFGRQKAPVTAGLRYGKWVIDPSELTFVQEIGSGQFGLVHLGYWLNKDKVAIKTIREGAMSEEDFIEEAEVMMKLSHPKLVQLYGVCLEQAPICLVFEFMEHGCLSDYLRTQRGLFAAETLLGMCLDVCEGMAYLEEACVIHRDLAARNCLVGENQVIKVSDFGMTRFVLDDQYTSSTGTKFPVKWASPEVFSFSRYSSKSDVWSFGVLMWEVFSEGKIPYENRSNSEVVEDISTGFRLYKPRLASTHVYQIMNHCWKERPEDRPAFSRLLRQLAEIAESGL

T1 sequence (P31749 whole entry, looked up): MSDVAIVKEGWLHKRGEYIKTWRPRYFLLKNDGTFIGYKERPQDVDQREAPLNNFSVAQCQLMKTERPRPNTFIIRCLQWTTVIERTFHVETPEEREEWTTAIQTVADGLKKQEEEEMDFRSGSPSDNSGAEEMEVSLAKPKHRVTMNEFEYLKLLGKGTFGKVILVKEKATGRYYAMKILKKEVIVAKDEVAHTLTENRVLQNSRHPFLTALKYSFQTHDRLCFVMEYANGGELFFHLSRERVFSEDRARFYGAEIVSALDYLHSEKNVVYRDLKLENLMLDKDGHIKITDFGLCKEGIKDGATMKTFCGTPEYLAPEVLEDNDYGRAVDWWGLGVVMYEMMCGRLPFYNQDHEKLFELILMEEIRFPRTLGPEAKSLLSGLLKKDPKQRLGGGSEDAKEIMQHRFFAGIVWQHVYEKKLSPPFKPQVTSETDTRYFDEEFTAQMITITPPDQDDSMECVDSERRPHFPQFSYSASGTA
T1 sequence (P31751 whole entry, looked up): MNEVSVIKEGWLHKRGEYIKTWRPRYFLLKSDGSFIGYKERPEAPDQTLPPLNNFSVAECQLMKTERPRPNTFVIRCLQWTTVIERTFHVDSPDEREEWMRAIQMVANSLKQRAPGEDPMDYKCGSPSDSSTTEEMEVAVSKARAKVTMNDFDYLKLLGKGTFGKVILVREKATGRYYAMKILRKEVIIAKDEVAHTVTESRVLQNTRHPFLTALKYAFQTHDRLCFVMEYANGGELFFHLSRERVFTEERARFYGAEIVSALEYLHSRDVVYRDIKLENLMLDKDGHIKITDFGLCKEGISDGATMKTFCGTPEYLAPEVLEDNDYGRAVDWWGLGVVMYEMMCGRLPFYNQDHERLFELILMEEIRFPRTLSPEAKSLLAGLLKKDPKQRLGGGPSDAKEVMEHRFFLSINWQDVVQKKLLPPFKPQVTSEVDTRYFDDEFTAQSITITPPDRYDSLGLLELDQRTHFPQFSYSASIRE
T1 sequence (Q9Y243 whole entry, looked up): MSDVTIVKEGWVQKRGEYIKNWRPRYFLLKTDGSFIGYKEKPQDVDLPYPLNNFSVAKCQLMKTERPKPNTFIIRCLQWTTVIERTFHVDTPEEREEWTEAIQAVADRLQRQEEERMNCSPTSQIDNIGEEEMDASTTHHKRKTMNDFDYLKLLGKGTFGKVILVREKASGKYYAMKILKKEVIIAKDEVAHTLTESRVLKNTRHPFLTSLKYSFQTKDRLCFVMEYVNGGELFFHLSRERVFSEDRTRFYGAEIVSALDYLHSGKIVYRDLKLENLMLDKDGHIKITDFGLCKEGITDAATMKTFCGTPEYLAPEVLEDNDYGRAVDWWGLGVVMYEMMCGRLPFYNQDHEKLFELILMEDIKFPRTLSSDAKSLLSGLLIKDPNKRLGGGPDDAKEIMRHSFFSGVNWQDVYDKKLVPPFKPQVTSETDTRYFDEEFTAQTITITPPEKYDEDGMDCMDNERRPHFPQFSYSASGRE

IC50 [1]: 670 nM | IC50 [5]: 1040 nM | inhibition [6]: Dose-Dependent Effect | inhibition [17]: Active | half-life [18]: 13.8 h | IC50 [26]: 1270 nM | inhibition [28]: 81%
SMILES: C=CC(=O)Nc1cccc(Nc2nc(Nc3cnn(CC)c3)nc3ccc(Cl)cc23)c1
Activity [2]: Dose-Dependent Effect | Activity [3]: 9.97% | Activity [4]: 48.6% | inhibition [7]: Active | Activity [8]: Dose-Dependent Effect | Activity [9]: Non-Toxic | Activity [10]: Dose-Dependent Effect | Activity [11]: Tde | Activity [12]: Non-Toxic | Activity [13]: 30.7% | Activity [14]: 10.7% | Activity [15]: Non-Toxic | Activity [16]: Dose-Dependent Effect | Activity [19]: Non-Toxic | inhibition [20]: Active | Activity [21]: 16.1% | Activity [22]: Dose-Dependent Effect | Activity [23]: Non-Toxic | Activity [24]: Non-Toxic | Activity [25]: 17.1% | inhibition [27]: Dose-Dependent Effect
